Holding throughout (test): DTP human tumour cell line panel, 48 h
Experiment [1] deals with MDA-N.
In experiment [2] the test system is SK-MEL-5.
For experiment [3], the system named is A498.
For experiment [4], the system named is UACC-257.
The subject of experiment [5] is UACC-62.
The test system of experiment [6] is PC-3.
Experiment [7] has as its system HCC 2998.
Experiment [8] relates to T47D.
Experiment [9] deals with HOP-92.
For experiment [10], the system named is SR.
For experiment [11], the system named is SK-OV-3.
The test system of experiment [12] is CAKI-1.
The subject of experiment [13] is MCF7.
Experiment [14] has as its system MDA-MB-435.
Experiment [15] relates to EKVX.
Experiment [16] concerns RXF 393.
Experiment [17] deals with MDA-MB-231.
The test system of experiment [18] is ACHN.
In experiment [19] the test system is CCRF-CEM.
In experiment [20] the test system is Hs-578T.

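A five-concentration, 48-hour dose response in 96-well plates underlies each endpoint, interpolated linearly between surrounding concentrations. Here, GI50 denotes the concentration required for 50% inhibition of growth.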 The source made the active and inactive calls. Rule as the data show it: active = GI50 up to about 1.1 µM and inactive = higher.

The term GI50 denotes the concentration giving 50% growth inhibition. Take `COc1cc(C2c3cc4c(cc3[C@@H](Nc3ccc(F)cc3)C3COC(=O)[C@H]23)OCO4)cc(OC)c1O` (stereo partly drawn): the GI50 in [1] is 8.93 µM (inactive); in experiment [2] it was 1.78 µM (inactive); in [3], 1.89 µM (inactive); in [4], 6.05 µM (inactive); in [5] it was 0.841 µM (active); in experiment [6], 1.65 µM (inactive). Moreover, the GI50 is 3.28 µM (inactive) in experiment [7]; 0.605 µM (active) in [8]; 2.91 µM (inactive) in [9]; 0.106 µM (active) in experiment [10]; 3.45 µM (inactive) in experiment [11]; 0.514 µM (active) in experiment [12]. The GI50 in experiment [13] was 0.408 µM (active); in experiment [14] it was 4.17 µM (inactive); in experiment [15], 3.76 µM (inactive); in experiment [16] it was 3.12 µM (inactive); in [17] it was 4.33 µM (inactive); in experiment [18] it was 0.476 µM (active).
Consider `O=C(NN1C(=O)/C(=C/c2ccc(Cl)cc2)N=C1c1ccccc1)c1c(Cl)c(Cl)c(Cl)c(Cl)c1-c1nc2ccccc2[nH]1`, for which the GI50 was 12.1 µM (inactive) in experiment [19]; 3.84 µM (inactive) in experiment [1]; 19.7 µM (inactive) in [2]; 12.9 µM (inactive) in [3]; 10.7 µM (inactive) in experiment [5]; 20.2 µM (inactive) in experiment [6]. The GI50 is 8.09 µM (inactive) in experiment [7]; 0.582 µM (active) in [8]; 11.6 µM (inactive) in experiment [9]; 13.5 µM (inactive) in [20]; 3.58 µM (inactive) in experiment [10]; < 0.01 µM (active) in experiment [11]. For the same molecule, the GI50 in experiment [12] was 18.9 µM (inactive); in experiment [13] it was 9.91 µM (inactive); in experiment [14], 2.8 µM (inactive); in experiment [15] it was 19.4 µM (inactive); in [18], 22.1 µM (inactive).
For the molecule `CN1CN(c2ccccc2)C2(CCN(Cc3nc4ccccc4s3)CC2)C1=O`, the GI50 in [19] is 17.3 µM (inactive); in experiment [2] it was 16.1 µM (inactive); in experiment [3], 15.9 µM (inactive); in experiment [4], 16.6 µM (inactive); in experiment [5], 16 µM (inactive); in experiment [6], 14.2 µM (inactive). The GI50 was 16.2 µM (inactive) in experiment [8]; 15 µM (inactive) in experiment [9]; 18.7 µM (inactive) in experiment [20]; 14.8 µM (inactive) in experiment [10]; 22.2 µM (inactive) in experiment [11]; 20.1 µM (inactive) in experiment [12]. The GI50 in [13] was 15.7 µM (inactive); in [14], 17.8 µM (inactive); in experiment [15] it was 20.9 µM (inactive); in experiment [16], 14.6 µM (inactive); in experiment [17], 14.1 µM (inactive); in experiment [18], 19.6 µM (inactive).
Regarding `O=C(CNCc1ccccc1)Oc1c(Cl)c(Cl)c(Cl)c(Cl)c1Cl`, the GI50 in experiment [4] is 23.1 µM (inactive); in [5], 21.5 µM (inactive); in experiment [6], 22.1 µM (inactive); in experiment [7], 22.8 µM (inactive); in experiment [8] it was 25.7 µM (inactive); in [20], 17.3 µM (inactive). Further, the GI50 in experiment [10] was 21.8 µM (inactive); in experiment [11], 47 µM (inactive); in experiment [12], 25.3 µM (inactive); in experiment [13], 38.5 µM (inactive); in experiment [14] it was 35.2 µM (inactive); in experiment [15], 22.4 µM (inactive). The figures for the GI50 in [16], in [17] and in experiment [18] were 74.8 µM (inactive), 25.4 µM (inactive) and 23.1 µM (inactive), respectively.
`Cn1c2c(c3c(=O)[nH]ncc31)CCCc1ccccc1-2`: the GI50 is 34.5 µM (inactive) in experiment [19]; 16.1 µM (inactive) in [2]; 22.4 µM (inactive) in experiment [3]; 34.1 µM (inactive) in [4]; 28.7 µM (inactive) in experiment [5]; 26.1 µM (inactive) in experiment [6]. The GI50 is 38.9 µM (inactive) in [8]; 12.9 µM (inactive) in experiment [9]; 20.9 µM (inactive) in experiment [20]; 0.0993 µM (active) in experiment [10]; 25.7 µM (inactive) in [11]; 21.8 µM (inactive) in experiment [12]. Also, the GI50 in [13] is 25 µM (inactive); in experiment [14], 20.9 µM (inactive); in experiment [15], 11.8 µM (inactive); in experiment [17], 27.5 µM (inactive); in experiment [18], 26.8 µM (inactive).
On to `NC(=O)/C=C/c1c[nH]c2nccnc12`, for which the GI50 in experiment [19] was 0.656 µM (active); in experiment [1] it was 3.81 µM (inactive); in [2] it was 2.25 µM (inactive); in experiment [3] it was 2.58 µM (inactive); in [4], 4.11 µM (inactive); in experiment [5] it was 2.76 µM (inactive). Moreover, the GI50 in experiment [6] is 2.99 µM (inactive); in experiment [7] it was 1.14 µM (inactive); in experiment [8], 3.5 µM (inactive); in [9] it was 3.52 µM (inactive); in experiment [10], 1.66 µM (inactive); in experiment [11], 3.95 µM (inactive). Besides, the GI50 in experiment [12] was 3.08 µM (inactive); in experiment [13], 3.27 µM (inactive); in [14], 3.59 µM (inactive); in experiment [15], 3.15 µM (inactive); in [16], 1.99 µM (inactive); in experiment [17] it was 3.71 µM (inactive). The GI50 in experiment [18] was 2.71 µM (inactive).
`Cc1ccc(/C(Cl)=C/C=C(C#N)C#N)cc1`: the GI50 was 0.441 µM (active) in experiment [19]; 1.8 µM (inactive) in experiment [2]; 2.52 µM (inactive) in [4]; 4.51 µM (inactive) in experiment [5]; 4.01 µM (inactive) in experiment [6]; 4.23 µM (inactive) in [8]. Further, the GI50 in experiment [9] is 3.26 µM (inactive); in experiment [20], 2.16 µM (inactive); in [10] it was 1.37 µM (inactive); in experiment [11], 5.78 µM (inactive); in [12], 3.64 µM (inactive); in experiment [13], 30.4 µM (inactive). Moreover, the GI50 in [14] was 2.47 µM (inactive); in [15], 10.1 µM (inactive); in [16] it was 2.61 µM (inactive); in [17], 2.64 µM (inactive); in [18], 2.45 µM (inactive).
As for `CCOC(=O)c1nc2ccc(C(F)(F)F)cc2nc1Oc1ccc(C(=O)OC)cc1`, the GI50 was > 100 µM (inactive) in experiment [19]; 43.1 µM (inactive) in [2]; > 100 µM (inactive) in experiment [3]; > 100 µM (inactive) in experiment [4]; 59.4 µM (inactive) in [5]; 32.5 µM (inactive) in experiment [6]. For the same molecule, the GI50 in experiment [7] is > 100 µM (inactive); in [8], > 100 µM (inactive); in experiment [9], 43.2 µM (inactive); in [20] it was 33.2 µM (inactive); in experiment [10] it was > 100 µM (inactive); in experiment [11], > 100 µM (inactive). Further, the GI50 is > 100 µM (inactive) in [12]; 43.1 µM (inactive) in experiment [13]; 71.1 µM (inactive) in experiment [14]; > 100 µM (inactive) in [15]; 64.6 µM (inactive) in experiment [16]; 80.7 µM (inactive) in experiment [17]. For the same molecule, the GI50 in experiment [18] is > 100 µM (inactive).
For `CCOP(=O)(C=C=C(C)C)OCC`, the GI50 in experiment [1], in experiment [2], in [3], in [4], in [5] and in experiment [6] was > 100 µM (inactive) in each case. In addition, the GI50 in [7], in [8], in experiment [9], in experiment [20], in experiment [10] and in experiment [11] was > 100 µM (inactive) in each case. The GI50 in experiment [12], in experiment [13], in experiment [14], in [15], in experiment [16] and in experiment [18] was > 100 µM (inactive) throughout.
Turning to `COc1cc(CC(C)N)ccc1O` (stereo not drawn), the GI50 in experiment [19] was > 31.6 µM (inactive); in experiment [1], > 100 µM (inactive); in [2], > 100 µM (inactive); in experiment [3], > 100 µM (inactive); in experiment [4] it was > 100 µM (inactive); in experiment [5], > 100 µM (inactive). In addition, the GI50 in [6] was > 100 µM (inactive); in experiment [7], > 100 µM (inactive); in experiment [8], > 100 µM (inactive); in experiment [9] it was > 85.9 µM (inactive); in experiment [20], > 100 µM (inactive); in [10], > 100 µM (inactive). The GI50 in [11], in experiment [12], in experiment [13], in experiment [15], in [16] and in experiment [18] was > 100 µM (inactive) in each case.
In the case of `CC(=O)/C(=C\NC(=S)Nc1ccc(S(N)(=O)=O)cc1)C(=O)Nc1ccccc1C`, the GI50 in [19] is 16 µM (inactive); in experiment [2] it was 44 µM (inactive); in experiment [4] it was 71.6 µM (inactive); in experiment [5], 35.2 µM (inactive); in experiment [6], 38.2 µM (inactive); in experiment [7] it was 54.8 µM (inactive). The GI50 in [8] was 28.7 µM (inactive); in [9] it was 37.3 µM (inactive); in experiment [20] it was 61.8 µM (inactive); in [11] it was 34.2 µM (inactive); in experiment [12], 37.8 µM (inactive); in [13] it was 40.7 µM (inactive). The GI50 in [14] was 32.3 µM (inactive); in experiment [15] it was 66.5 µM (inactive); in experiment [16], 37.1 µM (inactive); in [17], 34.2 µM (inactive); in [18] it was 52.5 µM (inactive).

The values are drawn from ChEMBL document CHEMBL1201862, “PubChem BioAssay data set” (2004).
